Test results as given in patent US8247211B2, “Glycopeptide antibiotics” (American Cyanamid Company, priority 2001, dated 2012).
Values after ≈ are worked out from the molar mass of the structure shown.

How the values were obtained:
Assay in all cases: In vitro antibacterial evaluation: minimum inhibitory concentration (MIC), broth dilution method
Assay type in all cases: cell-based
Settings in all cases: 18 hours at 35° C.
Enterococcus sp. = tested on: Enterococcus sp.
Procedure, shortened: (§1)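 Broth dilution per NCCLS M7-A2 in Muller-Hinton II […], inoculum 5×10^5 CFU/mL, antibiotic tested over 64-0.06 μg/mL. MIC is taken as the lowest concentration that inhibits growth. Panel includes recent clinical isolates resistant to methicillin, penicillin and/or vancomycin.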

Staphylococcus sp. = tested on: Staphylococcus sp.
Procedure, shortened: as §1

Escherichia coli = tested on: Escherichia coli
Procedure, shortened: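 Values are minimum inhibitory concentrations, meaning the smallest antibiotic concentration that stops growth of the organism. They come from broth dilution in Muller-Hinton II […] per NCCLS guidance (M7-A2), using 5×10^5 CFU/mL and concentrations from 64 to 0.06 μg/mL.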

Streptococcus sp. = tested on: Streptococcus sp.
Procedure, shortened: as §1

[1] = broth dilution, inoculum 5×10^5 CFU/mL

- MIC Enterococcus avium (GC 4558) (Enterococcus sp.; Enterococcus avium (GC 4558)): 8 µg/mL (≈ 5.26 µM)
- MIC Enterococcus faecalis (ATCC 29212) (Enterococcus sp.; Enterococcus faecalis (ATCC 29212)): 8 µg/mL (≈ 5.26 µM)
- MIC Enterococcus faecalis (GC 2242) (Enterococcus sp.; Enterococcus faecalis (GC 2242)): 8 µg/mL (≈ 5.26 µM)
- MIC Enterococcus faecalis (GC 2691) (Enterococcus sp.; Enterococcus faecalis (GC 2691)): 8 µg/mL (≈ 5.26 µM)
- MIC Enterococcus faecalis (GC 3059) (Enterococcus sp.; Enterococcus faecalis (GC 3059)): 8 µg/mL (≈ 5.26 µM)
- MIC Enterococcus faecalis (GC 4552) (Enterococcus sp.; Enterococcus faecalis (GC 4552)): 8 µg/mL (≈ 5.26 µM)
- MIC Enterococcus faecalis (GC 4553) (Enterococcus sp.; Enterococcus faecalis (GC 4553)): 8 µg/mL (≈ 5.26 µM)
- MIC Enterococcus faecalis (GC 4554) (Enterococcus sp.; Enterococcus faecalis (GC 4554)): 16 µg/mL (≈ 10.5 µM)
- MIC Enterococcus faecalis (GC 6189) (Enterococcus sp.; Enterococcus faecalis (GC 6189)): 8 µg/mL (≈ 5.26 µM)
- MIC Enterococcus faecium (GC 2243) (Enterococcus sp.; Enterococcus faecium (GC 2243)): 8 µg/mL (≈ 5.26 µM)
- MIC Enterococcus faecium (GC 4556) (Enterococcus sp.; Enterococcus faecium (GC 4556)): 8 µg/mL (≈ 5.26 µM)
- MIC Enterococcus faecium (GC 4557) (Enterococcus sp.; Enterococcus faecium (GC 4557)): 4 µg/mL (≈ 2.63 µM)
- MIC Enterococcus faecalis (GC 2242) (Enterococcus sp.; [1]): 8 µg/mL (≈ 5.26 µM)
- MIC Enterococcus faecalis (GC 2691) (Enterococcus sp.; [1]): 8 µg/mL (≈ 5.26 µM)
- MIC Enterococcus faecalis (GC 3059) (Enterococcus sp.; [1]): 8 µg/mL (≈ 5.26 µM)
- MIC Coagulase Negative Staphylococcus (GC 4547) (Staphylococcus sp.; Coagulase Negative Staphylococcus (GC 4547)): 2 µg/mL (≈ 1.31 µM)
- MIC Coagulase Negative Staphylococcus (GC 4548) (Staphylococcus sp.; Coagulase Negative Staphylococcus (GC 4548)): 1 µg/mL (≈ 0.657 µM)
- MIC Coagulase Negative Staphylococcus (GC 4549) (Staphylococcus sp.; Coagulase Negative Staphylococcus (GC 4549)): 2 µg/mL (≈ 1.31 µM)
- MIC Coagulase Negative Staphylococcus (GC 4551) (Staphylococcus sp.; Coagulase Negative Staphylococcus (GC 4551)): 2 µg/mL (≈ 1.31 µM)
- MIC Coagulase Negative Staphylococcus (GC 6257) (Staphylococcus sp.; Coagulase Negative Staphylococcus (GC 6257)): 2 µg/mL (≈ 1.31 µM)
- MIC Staphylococcus aureus (ATCC 29213) (Staphylococcus sp.; Staphylococcus aureus (ATCC 29213)): 4 µg/mL (≈ 2.63 µM)
- MIC Staphylococcus aureus (GC 1131) (Staphylococcus sp.; Staphylococcus aureus (GC 1131)): 4 µg/mL (≈ 2.63 µM)
- MIC Staphylococcus aureus (GC 3051) (Staphylococcus sp.; Staphylococcus aureus (GC 3051)): 2 µg/mL (≈ 1.31 µM)
- MIC Staphylococcus aureus (GC 3053) (Staphylococcus sp.; Staphylococcus aureus (GC 3053)): 4 µg/mL (≈ 2.63 µM)
- MIC Staphylococcus aureus (GC 4541) (Staphylococcus sp.; Staphylococcus aureus (GC 4541)): 4 µg/mL (≈ 2.63 µM)
- MIC Staphylococcus aureus (GC 4542) (Staphylococcus sp.; Staphylococcus aureus (GC 4542)): 4 µg/mL (≈ 2.63 µM)
- MIC Staphylococcus aureus (GC 4544) (Staphylococcus sp.; Staphylococcus aureus (GC 4544)): 4 µg/mL (≈ 2.63 µM)
- MIC Staphylococcus aureus (GC 4545) (Staphylococcus sp.; Staphylococcus aureus (GC 4545)): 4 µg/mL (≈ 2.63 µM)
- MIC Staphylococcus aureus-SMITH (GC 4543) (Staphylococcus sp.; Staphylococcus aureus-SMITH (GC 4543)): 2 µg/mL (≈ 1.31 µM)
- MIC Escherichia coli (ATCC 25922) (Escherichia coli; Escherichia coli (ATCC 25922)): >64 µg/mL
- MIC Escherichia coli (GC 4559) (Escherichia coli; Escherichia coli (GC 4559)): >64 µg/mL
- MIC Escherichia coli (GC 4560) (Escherichia coli; Escherichia coli (GC 4560)): 2 µg/mL (≈ 1.31 µM)
- MIC Streptococcus agalactiae (GC 4564) (Streptococcus sp.; Streptococcus agalactiae (GC 4564)): 1 µg/mL (≈ 0.657 µM)
- MIC Streptococcus pneumoniae (ATCC 6301) (Streptococcus sp.; Streptococcus pneumoniae (ATCC 6301)): 0.25 µg/mL (≈ 0.164 µM)
- MIC Streptococcus pneumoniae (GC 1894) (Streptococcus sp.; Streptococcus pneumoniae (GC 1894)): <0.06 µg/mL
- MIC Streptococcus pneumoniae (GC 4565) (Streptococcus sp.; Streptococcus pneumoniae (GC 4565)): 0.25 µg/mL (≈ 0.164 µM)
- MIC Streptococcus pyogenes (GC 4563) (Streptococcus sp.; Streptococcus pyogenes (GC 4563)): 2 µg/mL (≈ 1.31 µM)
- MIC Streptococcus agalactiae (GC 4564) (Streptococcus sp.; [1]): 1 µg/mL (≈ 0.657 µM)
- MIC Streptococcus pneumoniae (ATCC 6301) (Streptococcus sp.; [1]): 0.25 µg/mL (≈ 0.164 µM)
- MIC Streptococcus pneumoniae (GC 1894) (Streptococcus sp.; [1]): <0.06 µg/mL
- MIC Streptococcus pneumoniae (GC 4565) (Streptococcus sp.; [1]): 0.25 µg/mL (≈ 0.164 µM)
- MIC Streptococcus pyogenes (GC 4563) (Streptococcus sp.; [1]): 2 µg/mL (≈ 1.31 µM)
Compound: COc1ccc(COC2C(CO)OC(OC3C(CO)OC(Oc4ccc(CC5NC(=O)C(C(C)c6ccccc6)NC(=O)CNC(=O)C(CO)NC(=O)C(C(O)C6CNC(=N)N6C6OC(CO)C(O)C(O)C6O)NC(=O)C(C(O)C6CNC(=N)N6)NC5=O)cc4)C(O)C3O)C(O)C2O)cc1OCc1ccccc1 (stereo not drawn) [Example 239a, Cyclo[glycyl-β-methylphenylalanyl-O-[4-O-[4-O-[4-methoxy-3-(phenylmethoxy)benzyl]-hexopyranosyl]hexopyranosyl]tyrosyl-3-(2-iminoimidazolidin-4-yl)seryl-3-(3-hexopyranosyl-2-iminoimidazolidin-4-yl)serylseryl]]
- MIC Staphylococcus haemolyticus (GC 4546) (Staphylococcus sp.; Staphylococcus haemolyticus (GC 4546)): 2 µg/mL (≈ 1.31 µM)
